Experimental findings from patent US12351574B2, “Selective ligands for modulation of GIRK channels” (Northeastern University, priority 2018, dated 2025) are described below.

In general, EC50 refers to the concentration that produces a half-maximal response. Read a high EC50 as lower potency in that assay.

The target in this experiment is T1, GIRK1/4 (Homo sapiens, UniProt P48544+P48549).
T1 sequence (P48549 1-501): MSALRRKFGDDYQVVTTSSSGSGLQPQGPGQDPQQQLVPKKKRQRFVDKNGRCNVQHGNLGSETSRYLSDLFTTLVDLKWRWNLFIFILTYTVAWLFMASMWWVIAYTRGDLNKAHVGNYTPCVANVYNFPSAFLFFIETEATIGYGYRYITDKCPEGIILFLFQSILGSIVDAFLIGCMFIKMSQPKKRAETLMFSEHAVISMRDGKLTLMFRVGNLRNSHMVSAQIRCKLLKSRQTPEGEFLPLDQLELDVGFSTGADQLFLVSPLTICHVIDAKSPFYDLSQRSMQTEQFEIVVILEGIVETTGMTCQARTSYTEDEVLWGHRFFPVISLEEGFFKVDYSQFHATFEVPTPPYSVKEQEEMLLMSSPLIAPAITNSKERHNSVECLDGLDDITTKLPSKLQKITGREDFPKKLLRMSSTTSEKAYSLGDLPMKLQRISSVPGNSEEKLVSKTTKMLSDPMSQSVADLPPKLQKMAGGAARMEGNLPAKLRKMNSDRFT
T1 sequence (P48544 1-419): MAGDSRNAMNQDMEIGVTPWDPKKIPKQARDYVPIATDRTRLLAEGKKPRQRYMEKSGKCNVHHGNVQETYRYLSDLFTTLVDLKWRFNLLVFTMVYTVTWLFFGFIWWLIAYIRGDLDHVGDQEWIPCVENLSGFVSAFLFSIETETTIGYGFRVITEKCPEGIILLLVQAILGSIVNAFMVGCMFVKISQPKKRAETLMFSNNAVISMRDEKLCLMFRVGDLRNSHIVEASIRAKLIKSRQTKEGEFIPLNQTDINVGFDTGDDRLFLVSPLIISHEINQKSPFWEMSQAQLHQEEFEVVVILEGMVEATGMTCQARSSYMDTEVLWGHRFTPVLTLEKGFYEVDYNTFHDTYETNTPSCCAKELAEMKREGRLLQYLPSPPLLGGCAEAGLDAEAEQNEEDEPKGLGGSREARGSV
Nature of the experiment: two-electrode voltage clamp (TEVC) in Xenopus oocytes expressing GIRK1/4 wild-type. The class given is cell-based. Further details: expressed in transfected cells; host or cells: Xenopus laevis oocytes (cRNA injection). The source says: Molecular biology: For Xenopus oocyte expression, human GIRK1 and human GIRK4 cDNAs were subcloned into pGEMHE. For mammalian expression, human GIRK1 and human GIRK4 cDNAs were subcloned into pcDNA3 and pcDNA3.1/V5-His B, respectively (Invitrogen). Mouse GIRK2 cDNA was subcloned in the dual-function vector, pXoom. Point mutations were introduced using a standard Pfu-based mutagenesis technique according to the QuikChange protocol (Agilent). Mutations were verified by sequencing.
Xenopus laevis oocyte expression: Plasmid DNAs of GIRK channel subunits were linearized prior to in vitro transcription. Capped RNAs were transcribed using mMESSAGE mMACHINE T7 Transcription Kit (Thermo Fisher Scientific). Xenopus oocytes were surgically extracted, dissociated and defolliculated by collagenase treatment, and microinjected with 50 nl of a water solution containing 1 ng of each GIRK subunit RNA. For TEVC experiments, oocytes were kept 2 days at 17° C. before recording, while for NPo experiments oocytes were incubated for up to 4 days at 17° C.
Xenopus laevis oocyte expression: All cDNA constructs in the pGEMHE vector were linearized using the NheI restriction enzyme, whereas those in the pXoom vector were linearized using the XhoI restriction enzyme. Linearized cDNAs were in vitro-transcribed using the mMessage mMachine® kit (Ambion) kit. Complementary RNA (cRNA) concentrations were quantified by optical density. Xenopus oocytes were surgically extracted, dissociated, and defolliculated by collagenase treatment and microinjected with 50 nl of the desired cRNAs diluted in RNAase-free water. The use of Xenopus laevis frogs for this study was approved by the Institutional Animal Care and Use Committee (IACUC) at Northeastern University. All constructs used in this study were injected to achieve between 1-2 ng per oocyte depending on the channel. Oocytes were incubated for 2 days at 18° C.
Electrophysiology of oocytes: Whole-oocyte currents were measured by conventional two-electrode voltage clamp (TEVC) with a GeneClamp 500 amplifier (Axon Instruments). […] Barium-sensitive currents were normalized to average basal current in the vehicle solutions. The HK solution contained the following: 96 mM KCl, 1 mM NaCl, 1 mM MgCl2, 5 mM KOH/HEPES, pH 7.4. The barium solution consisted of HK+10 mM BaCl2. Five to ten oocytes from the same batch (same frog) were recorded for each group, and the experiments were repeated in at least four batches. Data acquisition and analysis were carried out using pClamp9 (Molecular Devices) and OriginPro (Microcal) software.
On the technique in general: Two-electrode voltage clamp is typically applied to oocytes expressing channels or transporters.

For `Cc1cc(NC(=O)Nc2ccc(Br)s2)n(-c2ccccc2)n1` [GAT1508, 1-(5-bromothiophen-2-yl)-3-(3-methyl-1-phenyl-1H-pyrazol-5-yl)urea], the “GAT1508-induced potassium current, GIRK1/4 (in words)” value (10 μM, 10 mM K+, holding potential −100 mV) is “not”. Further, the “GAT1508-induced thallium current, GIRK1/4 (in words)” value (10 μM, 10 mM thallium, holding potential −100 mV) is “induced current increases”.

With `Cc1cc(NC(=O)Nc2ccc(F)c(F)c2)n(-c2ccccc2)n1` [ML297, reference compound], the “compound-induced current normalized to the basal current, GIRK1+GIRK4” value (10 μM, High Potassium (HK) solution, FIG. 31) is recorded as roughly 1.75. Also, the “EMAX at GIRK1/4, % relative to ML297” value (ML297 considered 100%) is 100%. Also, where the note is “TEVC, Xenopus oocytes, GIRK1/4 wild-type”, the half-maximal effective concentration (EC50) was found to be 500 ± 260 nM. For the same compound, the “EMAX at GIRK1/4” value (current normalized to basal current) is 1.60±0.07.
